Source: US7601850B2, “Phenyl-thiophene type vitamin D receptor modulators” (Eli Lilly and Company, priority 2002, dated 2009)
pEC50, pIC50: −log10 of the molar value. Where two headings read alike, the source gives them in different places.

Legend:
rat osteocalcin promoter = test: OCN (osteocalcin) promoter assay in RG-15 (ROS 17/2.8) cells; assay type: cell-based
Summary of the method: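 Rat osteoblast-like RG-15 (ROS 17/2.8) cells stably carry the rat osteocalcin promoter fused to luciferase. They were treated with compounds for 48 h in medium with 2% FBS and 0.01% DMSO. EC50 was derived from luciferase activity in cell lysates.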

[1] = Mouse hypercalcemia assay (six day, serum ionized calcium); assay type: in vivo
Method: 5. The Mouse Hypercalcemia test is described in the “Assay” section of the Description, infra.
4. The Mouse Hypercalcemia Assay
The Mouse Hypercalcemia Assay is a six day hypercalcemia test for toxicity and selectivity. Acceptable test results are levels greater than 300 μg/kg/day. Preferred assay results are levels greater than 1000 μg/kg/day.
(4) Materials and Method for The Mouse Hypercalcemia Assay:
Weanling, virus-antibody-free, five to six weeks old female DBF mice (Harlan, Indianapolis, Ind.) are used for all the studies. Animals are allowed to acclimate to local vivarium conditions for 2 days. […] The animals then are divided into groups with 4-5 mice per group. Different doses of test compounds prepared in 10% Ethanol and 90% sesame oil are administered to mice orally via gavage for 6 days. 1α-25(OH)2D3 0.5 μg/kg/d was also given to one group of mice as the positive control. Serum ionized calcium is evaluated at 6 hours after the last dosing under isoflurane anesthesia by Ciba-Corning Ca++/PH Analyzer, (Model 634, Chiron Diagnostics Corp., East Walpole, Mass.). Raw data of group differences is assessed by analysis of variance (ANOVA) using Fisher's protected least significant difference (PLSD) where the significance level was P<0.05.

KERtr cells = test: Keratinocyte proliferation assay (BrdU incorporation); assay type: cell-based; conditions: KERtr human skin keratinocytes, 72 hr treatment, read-out: Kera. Prolif. IC50
Method: 6. The keratinocyte proliferation assay is described in the “Assay” section of the Description, infra.
5. The Keratinocyte Proliferation Assay
This Assay is indicative for the treatment of psoriasis.
(5) The Keratinocyte Proliferation Assay:
KERtr cells (Human skin keratinocyte transformed with a retrovirus vector, obtained from ATCC) were plated in 96-well flat-bottomed plates (3000 cells/well) in 100 µl keratinocyte serum free medium supplemented with bovine pituitary extract in the absence of EGF (Life Technologies, Rockville, Md.) and incubated at 37° C. for two days. The cells were treated with various concentrations of VDR ligands (ten-fold serial dilution from 10,000 nM to 0.1 nM in triplicate), dissolved in 100 µl keratinocyte serum free medium supplemented with bovine pituitary extract in the absence of EGF and incubated at 37° C. for 72 hr. […] Potency values (IC50) values were determined as the concentration (nM) of compound that elicited a half-maximal response.

[2] = Homo sapiens, Keratinocyte, 72 h

SMILES | pEC50 (rat osteocalcin promoter) | Mouse Hypercal [1] [µg/kg/day] | pIC50 (KERtr cells; [2]) | pEC50 (rat osteocalcin promoter; Rattus norvegicus) | pIC50 (KERtr cells) | Mouse Hypercal μg/Kg/d [1]
CCC(CC)(c1ccc(OCC(=O)O)c(C)c1)c1cc(C)c(CCC(O)C(C)(C)C)s1 (single isomer, unassigned) [Ex. 33B, 3′-[5-(3-hydroxy-4,4-dimethylpentyl)-4-methylthiophen-2-yl]-3′-[4-(carboxylmethoxy)-3-methylphenyl]pentane] | 8.12 | 1000 | 7.65 | – | – | –
CCC(CC)(c1ccc(OCC(=O)Nc2nnn[nH]2)c(C)c1)c1cc(C)c(CCC(O)C(C)(C)C)s1 (single isomer, unassigned) [Ex. 35, 3′-[5-(3-hydroxy-4,4-dimethylpentyl)-4-methylthiophen-2-yl]-3′-[4-(tetrazol-5-yl-aminocarbonylmethoxy)-3-methylphenyl]pentane] | 7.68 | 3000 | 6.32 | – | – | –
CCC(CC)(c1ccc(OCC(O)C(C)(C)C)c(C)c1)c1cc(C)c(C(=O)NC(C)(C)C(=O)O)s1 (single isomer, unassigned) [Ex. 71, 2-[(5-{1-Ethyl-1-[4-(2-hydroxy-3,3-dimethyl-butoxy)-3-methyl-phenyl]-propyl}-3-methyl-thiophene-2-carbonyl)-amino]-2-methyl-propionic acid] | – | <300 | – | 8.46 | 7.54 | –
CCC(CC)(c1ccc(OCC(O)C(C)(C)C)c(C)c1)c1cc(C)c(C(=O)NC(C)(C)C(=O)O)s1 (single isomer, unassigned) [Ex. 77, 2-[(5-{1-Ethyl-1-[4-(2-hydroxy-3,3-dimethyl-butoxy)-3-methyl-phenyl]-propyl}-3-methyl-thiophene-2-carbonyl)-amino]-2-methyl-propionic acid] | 8.70 | 300 | – | – | 6.71 | –
CCC(CC)(c1ccc(OCC(O)C(C)(C)C)c(C(C)C)c1)c1ccc(C(=O)O)s1 (single isomer, unassigned) [Ex. 97, 3′-[4-(2-hydroxy-3,3-dimethylbutoxy)-3-i-propylphenyl]-3′-[5-carboxy-thiophen-2-yl]pentane] | – | 3000 | – | 7.65 | – | –
CCC(CC)(c1ccc(OCC(O)C(C)(C)C)c(C(C)C)c1)c1ccc(C(=O)O)s1 (single isomer, unassigned) [Ex. 98, 3′-[4-(2-hydroxy-3,3-dimethylbutoxy)-3-i-propylphenyl]-3′-[5-carboxy-thiophen-2-yl]pentane] | 7.80 | 4000 | – | – | – | –
CCc1cc(C(CC)(CC)c2ccc(C(=O)O)s2)ccc1OCC(O)C(C)(C)C (single isomer, unassigned) [Ex. 100, 3′-[4-(2-hydroxy-3,3-dimethylbutoxy)-3-ethylphenyl]-3′-[5-carboxy-thiophen-2-yl]pentane] | 8.25 | 3000 | 6.67 | – | – | –
CCC(CC)(c1ccc(OCC(C)(O)C(C)(C)C)c(C)c1)c1ccc(C(=O)O)s1 (single isomer, unassigned) [Ex. 104, 3′-[4-(2-hydroxy-2,3,3-trimethylbutoxy)-3-methylphenyl]-3′-[5-carboxy-thiophen-2-yl]pentane] | 7.04 | 1000 | – | – | – | –
CCC(CC)(c1ccc(OCC(C)(O)C(C)(C)C)c(C)c1)c1ccc(C(=O)NCC(=O)O)s1 (single isomer, unassigned) [Ex. 106, 3′-[4-(2-hydroxy-2,3,3-trimethylbutoxy)-3-methylphenyl]-3′-[5-(carboxymethylamino)carbonyl-thiophen-2-yl]pentane] | – | – | 7.89 | 8.09 | – | >=1000 μg/Kg/d
CCCc1cc(C(CC)(CC)c2ccc(C(=O)N[C@@H](C)C(=O)O)s2)ccc1OCC(C)(O)C(C)(C)C (single isomer, unassigned) [Ex. 114, d-3′-[4-(2-hydroxy-2,3,3-trimethylbutoxy)-3-n-propylphenyl]-3′-[5-(carboxy-1-ethylamino)carbonyl-thiophen-2-yl]pentane] | – | <300 | – | 9.55 | – | –
CCC(CC)(c1ccc(OCC(C)(O)C(C)(C)C)c(OC)c1)c1ccc(C(=O)NC(C)C(=O)O)s1 (single isomer, unassigned) [Ex. 116, d-3′-[4-(2-hydroxy-2,3,3-trimethylbutoxy)-3-methoxyphenyl]-3′-[5-(carboxy-1-ethylamino)carbonyl-thiophen-2-yl]pentane] | – | >3000 | – | 7.77 | – | –
CCC(CC)(c1ccc(OCC(=O)C(C)(C)C)c(C)c1)c1ccc(OCC(=O)C(C)(C)C)c(C)c1 [DD, reference compound] | – | 1000 | 5.97 | 7.51 | – | –
CCC(CC)(c1ccc(OCC(=O)C(C)(C)C)c(C)c1)c1cc(C)c(C(=O)N(C)OC)s1 [Ex. 45, 5-{1-[4-(3,3-dimethyl-2-oxo-butyoxy)-3-methyl-phenyl]-1-ethyl-propyl}-3methyl-thiophene-2-carboxylic acid methoxy-methyl-amide] | – | >1500 | – | 7.39 | – | –
CCC(CC)(c1ccc(OCC(=O)C(C)(C)C)c(C)c1)c1cc(C)c(C(=O)NCC(=O)O)s1 [Ex. 50] | – | >3000 | – | 7.66 | – | –
CCC(CC)(c1ccc(OCC(O)C(C)(C)C)c(C)c1)c1cc(C)c(C(=O)N[C@@H](C)C(=O)O)s1 (stereo partly drawn) [Ex. 55, L-2-[(5-{1-Ethyl-1-[4-(2-hydroxy-3,3-dimethyl-butoxy)-3-methyl-phenyl]-propyl}-3-methyl-thiophene-2-carbonyl)-amino]-propionic acid] | 7.53 | 1000 | – | – | 10.00 | –
CCC(CC)(c1ccc(OCC(O)C(C)(C)C)c(C)c1)c1cc(C)c(C(=O)N[C@H](C)C(=O)O)s1 (stereo partly drawn) [Ex. 67, D-2-[(5-{1-Ethyl-1-[4-(2-hydroxy-3,3-dimethyl-butoxy)-3-methyl-phenyl]-propyl}-3-methyl-thiophene-2-carbonyl)-amino]-propionic acid] | 7.71 | 3000 | 6.71 | – | – | –
CCC(CC)(c1ccc(OCC(O)C(C)(C)C)c(C(C)C)c1)c1ccc(C(=O)O)s1 (centres unmarked) [Ex. 92, 3′-[4-(2-Hydroxy-3,3-dimethylbutoxy)-3-(1-methylethyl)phenyl]-3′-[5-carboxy-thiophen-2-yl]pentane] | – | 1000 | – | 7.12 | – | –
CCCc1cc(C(CC)(CC)c2ccc(C(=O)O)s2)ccc1OCC(O)C(C)(C)C (centres unmarked) [Ex. 93, 3′-[4-(2-hydroxy-3,3-dimethylbutoxy)-3-n-propylphenyl]-3′-[5-carboxy-thiophen-2-yl]pentane] | – | 3000 | 6.75 | 7.41 | – | –
CCc1cc(C(CC)(CC)c2ccc(C(=O)O)s2)ccc1OCC(O)C(C)(C)C (centres unmarked) [Ex. 99, 3′-[4-(2-hydroxy-3,3-dimethylbutoxy)-3-ethylphenyl]-3′-[5-carboxy-thiophen-2-yl]pentane] | – | >1000 | – | 7.42 | – | –
CCC(CC)(c1ccc(OCC(C)(O)C(C)(C)C)c(C)c1)c1ccc(C(=O)O)s1 (centres unmarked) [Ex. 103, 3′-[4-(2-hydroxy-2,3,3-trimethylbutoxy)-3-methylphenyl]-3′-[5-carboxy-thiophen-2-yl]pentane] | – | 3000 | – | 6.99 | – | –
